The values below come from ChEMBL document CHEMBL4842343, “1,10-Seco-Eudesmane sesquiterpenoids as a new type of anti-neuroinflammatory agents by suppressing TLR4/NF-κB/MAPK pathways” (Eur J Med Chem, 2021).

Data set [1] can be described thus: Inhibition of LPS-induced NO production in mouse BV-2 cells incubated for 24 hrs by Griess reagent based assay. The format is functional, cell-based. The note with it: for pEC50: Mus musculus, BV-2, 24 h, read-out: EC50; for EC50: bv-2.
The test system of data set [2] is BV-2. Briefly: Cytotoxicity against LPS-stimulated mouse BV-2 cells assessed as reduction in cell viability at 20 uM measured after 24 hrs by MTT assay relative to control. The note with it: bv-2, 24 h. In kind it is cell-based. (Formazan colour is commonly taken as a measure of viable cells.)
Data set [3] is described as follows: Effective permeability of the compound in PBS/EtOH buffer (9:1) at […] after 10 hrs by HPLC-UV based PAMPA-BBB assay. In kind it is ADME. As to conditions: read-out: permeability; call rule not given here. For orientation: In PAMPA a lipid-coated filter parts donor from acceptor wells.
Data set [4] in a line: Inhibition of iNOS expression in LPS-stimulated mouse BV-2 cells at 10 uM measured after 24 hrs by western blot analysis relative to control. In kind it is functional. For orientation: In western blotting, separated proteins are transferred to a membrane and probed.
In data set [5] the test system is BV-2. In words: Antineuroinflammatory activity in LPS- stimulated mouse BV-2 cells assessed as fold increase in HO-1 expression at 10 uM measured after 24 hrs by immunoblotting analysis relative to control. The format is functional.

pEC50: −log10 of the molar value.

A word on the pEC50: it is the negative decadic logarithm of the EC50, by convention in mol/L. Broadly, the inhibition is the percentage by which the read-out fell short of the control. A low value points to a weak effect.

Turning to `CC(=O)OCCC[C@H](C)C1=C(C)C[C@H]2OC(=O)[C@]3(CC(c4c(F)c(F)c(F)c(F)c4F)=NO3)[C@H]2[C@@H]1OC(C)=O`, the negative-log EC50 (pEC50) in data set [1] was 4.79. Besides, the Activity with BV-2 [2] was 92.2%.

On to `C=C1C(=O)O[C@@H]2C[C@@]3(C)O[C@@]3([C@@H](C)CCCOC(C)=O)[C@@H](O)[C@H]12`, for which, in data set [1], the pEC50 is 5.19. Besides, the Activity with BV-2 [2] was 93.4%.

Take `C=C1C(=O)O[C@@H]2CC(=C)C(Cl)([C@@H](C)CCCOC(C)=O)[C@@H](OC(C)=O)[C@H]12` (stereo partly specified): the pEC50 in data set [1] is 6.00. Also, the Activity in the data set with BV-2 [2] is 90.9%.

For `C=C1C(=O)O[C@@H]2CC(CN3CCOCC3)=C([C@@H](C)CCCOC(C)=O)[C@@H](OC(C)=O)[C@H]12`, in data set [1], the pEC50 is 4.84. In addition, the Activity in the data set on BV-2 [2] is 91.3%.

Turning to `C=C1C[C@H]2OC(=O)C(=C)[C@H]2C=C1[C@@H](C)CCCOC(C)=O`, the EC50 result in data set [1] is “Not Active”. Besides, the Activity in the data set with BV-2 [2] stood at 54.2%.

On to `C=C1C(=O)O[C@H]2[C@@H]1[C@H](OC(C)=O)C([C@@H](C)CCCOC(C)=O)=C(C)[C@H]2n1cc(C(=O)OC)nn1`, for which the EC50 entry in data set [1] is “Not Active”. Moreover, in the data set on BV-2 [2], the Activity was 63.8%.

Consider `C=C1C(=O)O[C@H]2[C@@H]1[C@H](OC(C)=O)C([C@@H](C)CCCOC(C)=O)=C(C)[C@H]2n1cc(-c2ccccc2)nn1`, for which, in data set [1], the EC50 result was “Not Active”. The Activity in the data set on BV-2 [2] came out at 57.3%.

With `CC(=O)OCCC[C@H](C)C1=C(C)C[C@H]2OC(=O)/C(=C/c3ccc(O)cc3)[C@H]2[C@@H]1O`, the pEC50 in data set [1] is 4.50. Further, the Activity in the data set with BV-2 [2] is given as 102.5%.

On to `C=C1C(=O)O[C@@H]2CC(CN3CCCCC3)=C([C@@H](C)CCCOC(C)=O)[C@@H](OC(C)=O)[C@H]12`, for which the pEC50 in data set [1] is 4.74. Further, the Activity with BV-2 [2] is given as 92.8%.

Take `CC(=O)OCCC[C@H](C)C1=C(C)C[C@H]2OC(=O)[C@]3(CC(c4ccc5ccccc5c4)=NO3)[C@H]2[C@@H]1OC(C)=O`: in data set [1], the pEC50 is under 4.30. Also, the Activity with BV-2 [2] is listed as 95.4%.

With `C=C1C(=O)O[C@@H]2CC(CN(CC)CC)=C([C@@H](C)CCCOC(C)=O)[C@@H](OC(C)=O)[C@H]12`, the pEC50 in data set [1] was 4.84. In the data set with BV-2 [2], the Activity is given as 94.1%.

As to `C=C1C(=O)O[C@@H]2C=C(C)C(Cl)([C@@H](C)CCCOC(C)=O)[C@@H](OC(C)=O)[C@H]12` (stereo partly specified), in data set [1], the pEC50 was 5.70. Besides, in the data set on BV-2 [2], the Activity turned out to be 90.8%.

With `CC(=O)OCCC[C@H](C)C1=C(C)C[C@H]2OC(=O)[C@]3(CC(c4ccccc4[N+](=O)[O-])=NO3)[C@H]2[C@@H]1OC(C)=O`, the pEC50 in data set [1] is under 4.30. Also, in the data set on BV-2 [2], the Activity amounted to 97.1%.

On to `C=C1C(=O)O[C@@H]2CC(CN3CCCC3)=C([C@@H](C)CCCOC(C)=O)[C@@H](OC(C)=O)[C@H]12`, for which the pEC50 in data set [1] is 4.52. The Activity in the data set on BV-2 [2] is 95.2%.

For the molecule `C=C1C(=O)O[C@@H]2CC(C)=C([C@@H](C)CCCOC(C)=O)[C@@H](O)[C@H]12`, in data set [3], the Papp at 10 h was determined as 7.5 ×10⁻⁶ cm/s. Also, in data set [1], the pEC50 was 4.90. Moreover, in the data set with BV-2 [2], the Activity came out at 99.5%.

For `C=C1C(=O)O[C@H]2[C@@H]1[C@H](OC(C)=O)C([C@@H](C)CCCOC(C)=O)=C(CBr)[C@@H]2Br`, in data set [1], the pEC50 is 4.95. Further, the Activity in the data set on BV-2 [2] is given as 96%.

For `COc1ccccc1C1=NO[C@]2(C1)C(=O)O[C@@H]1CC(C)=C([C@@H](C)CCCOC(C)=O)[C@@H](OC(C)=O)[C@@H]12`, the pEC50 in data set [1] was under 4.30. Moreover, in the data set on BV-2 [2], the Activity is 99.2%.

For `CC(=O)OCCC[C@H](C)C1C(C)C[C@H]2OC(=O)C(C)[C@H]2[C@@H]1O` (mixture of isomers), the pEC50 in data set [1] was under 4.30. The Activity in the data set with BV-2 [2] was determined as 98.5%.

For `C=C1C(=O)O[C@H]2[C@@H]1[C@H](OC(C)=O)C([C@@H](C)CCCOC(C)=O)=C(C)[C@H]2N=[N+]=[N-]`, in data set [1], the pEC50 is 5.17. Besides, in the data set on BV-2 [2], the Activity is recorded as 93.2%.

For `C#Cc1ccc(-c2cn([C@@H]3C(C)=C([C@@H](C)CCCOC(C)=O)[C@@H](OC(C)=O)[C@@H]4C(=C)C(=O)O[C@@H]43)nn2)cc1`, the EC50 result in data set [1] is listed as “Not Active”. In addition, the Activity with BV-2 [2] was 38.5%.

For `CC(=O)OCCC[C@H](C)C1=C(C)C[C@H]2OC(=O)[C@@H](C)[C@H]2[C@@H]1O`, the pEC50 in data set [1] was under 4.30. The Activity with BV-2 [2] turned out to be 101.2%.

On to `O=c1c(O)c(-c2ccc(O)c(O)c2)oc2cc(O)cc(O)c12` [QUERCETIN], for which the pEC50 in data set [1] is 4.98. Moreover, the Activity with BV-2 [2] stood at 98.1%.

In the case of `C=C1C(=O)O[C@@H]2CC(C)=C([C@@H](C)CCCOC(C)=O)[C@@H](OC(C)=O)[C@H]12`, the Papp at 10 h in data set [3] came out at 12.3 ×10⁻⁶ cm/s. In data set [4], this molecule returned an inhibition at 10 µM of 59.7%. Further, the “fold change (FC)” value in the data set on BV-2 [5] is given as 4. Besides, the pEC50 in data set [1] is 5.20. Also, the Activity in the data set on BV-2 [2] is 66.5%.

As to `C=C1C(=O)O[C@H]2[C@@H]1[C@H](OC(C)=O)C([C@@H](C)CCCOC(C)=O)=C(C)[C@@H]2Br`, the negative logarithm of the EC50 (pEC50) in data set [1] is 5.04. Also, the Activity with BV-2 [2] is 96.1%.

For the molecule `C=C1C(=O)O[C@H]2[C@@H]1[C@H](OC(C)=O)C([C@@H](C)CCCOC(C)=O)=C(C)[C@H]2N`, in data set [1], the negative-log EC50 (pEC50) was 5.42. Besides, in the data set on BV-2 [2], the Activity turned out to be 90.9%.

Regarding `NC(=O)N1c2ccccc2C=Cc2ccccc21` [CARBAMAZEPINE], the Papp at 10 h in data set [3] is 10.7 ×10⁻⁶ cm/s.

Regarding `CC(=O)OCCC[C@H](C)C1=C(C)C[C@H]2OC(=O)[C@]3(CC(c4ccccc4)=NO3)[C@H]2[C@@H]1OC(C)=O`, in data set [1], the pEC50 was 4.48. Besides, the Activity in the data set with BV-2 [2] amounted to 96.6%.

On to `C=C1C(=O)O[C@H]2[C@@H]1[C@H](OC(C)=O)C([C@@H](C)CCCOC(C)=O)=C(C)[C@@H]2c1ccccc1`, for which the pEC50 in data set [1] was 5.35. Besides, the Activity in the data set with BV-2 [2] is listed as 91.7%.

On to `CC(=O)OCCC[C@H](C)C1=C(C)C[C@H]2OC(=O)C(Cc3ccc(O)cc3)=C2[C@@H]1O`, for which, in data set [1], the pEC50 is 4.80. Also, in the data set on BV-2 [2], the Activity is given as 90.1%.

`CC(=O)OCCC[C@H](C)C1=C(C)C[C@H]2OC(=O)[C@]3(CC(c4ccccc4Br)=NO3)[C@H]2[C@@H]1OC(C)=O`: in data set [1], the pEC50 was under 4.30. For the same molecule, the Activity in the data set on BV-2 [2] worked out at 98.6%.

As to `CC(=O)OCCC[C@H](C)C1=C(C)C[C@H]2OC(=O)[C@]3(CC(c4ccc(F)cc4)=NO3)[C@H]2[C@@H]1OC(C)=O`, the negative logarithm of the EC50 (pEC50) in data set [1] was 4.41. Moreover, the Activity in the data set on BV-2 [2] turned out to be 101.5%.

For the molecule `COc1ccc(C2=NO[C@]3(C2)C(=O)O[C@@H]2CC(C)=C([C@@H](C)CCCOC(C)=O)[C@@H](OC(C)=O)[C@@H]23)cc1`, the pEC50 in data set [1] was under 4.30. Besides, the Activity in the data set on BV-2 [2] worked out at 96.5%.

With `C=C1C(=O)O[C@@H]2C[C@@]3(C)O[C@@]3([C@@H](C)CCCOC(C)=O)[C@@H](OC(C)=O)[C@H]12`, the pEC50 in data set [1] is 5.55. For the same molecule, the Activity with BV-2 [2] came out at 89.5%.

Turning to `CC(=O)OCCC[C@H](C)C1=C(C)C[C@H]2OC(=O)[C@]3(CC(c4ccc(N(C)C)cc4)=NO3)[C@H]2[C@@H]1OC(C)=O`, the pEC50 in data set [1] is 4.54. Besides, the Activity in the data set with BV-2 [2] is given as 9%.
